From patent US8614221B2, “Inhibitors of Akt activity” (Merck Sharp & Dohme Corp., priority 2009, dated 2013) come the findings set out here.

Experiment [1] addresses T1, Akt1 kinase (Homo sapiens, UniProt P31749).
T1 construct: a middle T tag was added to the 5′ end of the full length Akt1 gene; middle T tag (EYMPME) (N); biotin tag (from pS2neo vector); made in house; host or cells: Drosophila S2 cells
In words: Akt kinase assay (HTRF, GSK-derived biotinylated peptide substrate). The experiment is classed as biochemical. How it is done: (§1) Activated Akt isoforms and pleckstrin homology domain deletion constructs were assayed utilizing a GSK-derived biotinylated peptide substrate. The extent of peptide phosphorylation was determined by Homogeneous Time Resolved Fluorescence (HTRF) using a lanthanide chelate(Lance)-coupled monoclonal antibody specific for the phosphopeptide in combination with a streptavidin-linked allophycocyanin (SA-APC) fluorophore which will bind to the biotin moiety on the peptide. When the Lance and APC are in proximity (i.e. bound to the same phosphopeptide molecule), a non-radiative energy transfer takes place from the Lance to the APC, followed by emission of light from APC at 665 nm.
(§2) Materials required for the assay:
(§3) A. Activated Akt isozyme or pleckstrin homology domain deleted construct
(§4) B. Akt peptide substrate: GSK3α (S21) Peptide #3928 biotin-GGRARTSSFAEPG (SEQ. ID. NO. 15), Macromolecular Resources.
(§5) C. Lance labeled anti-phospho GSK3α monoclonal antibody (Cell Signaling Technology, clone #27).
(§6) D. SA-APC (Prozyme catalog no. MSS lot #896067).
(§7) E. Microfluor®B U Bottom Microtiter Plates (Dynex Technologies, Catalog no. 7205).
(§8) F. Discovery® HTRF Microplate Analyzer, Packard Instrument Company.
(§9) G. 100× Protease Inhibitor Cocktail (PIC): 1 mg/mL benzamidine, 0.5 mg/mL pepstatin, 0.5 mg/mL leupeptin, 0.5 mg/mL aprotinin.
(§10) H. 10× Assay Buffer: 500 mM HEPES, pH 7.5, 1% PEG, […], 1 mM EGTA, 1% BSA, 20 mM θ-Glycerol phosphate.
(§11) I. Quench Buffer: 50 mM HEPES pH 7.3, 16.6 mM EDTA, 0.1% BSA, 0.1% Triton X-100, 0.17 nM Lance labeled monoclonal antibody clone #27, 0.0067 mg/mL SA-APC
(§12) J. ATP/MgCl2 working solution: 1× Assay buffer, 1 mM DTT, 1×PIC, 125 mM KCl, 5% Glycerol, 25 mM MgCl2, 375 μM ATP
(§13) K. Enzyme working solution: 1× Assay buffer, 1 mM DTT, 1×PIC, 5% Glycerol, active Akt. The final enzyme concentrations were selected so that the assay was in a linear response range.
(§14) L. Peptide working solution: 1× Assay buffer, 1 mM DTT, 1×PIC, 5% Glycerol, 2 μM GSK3 biotinylated peptide #3928
(§15) The reaction is assembled by adding 16 μL of the ATP/MgCl2 working solution to the appropriate wells of a 96-well microliter plate. Inhibitor or vehicle (1.0 μL) is added followed by 10 μL of peptide working solution. The reaction is started by adding 13 μL of the enzyme working solution and mixing. The reaction is allowed to proceed for 50 min and then stopped by the addition of 60 μL HTRF quench buffer. The stopped reactions were incubated at room temperature for at least 30 min and then read on the Discovery instrument.

The target of experiment [2] is T2, Akt2 kinase (Homo sapiens, UniProt P31751).
T2 construct: a middle T tag was added to the 5′ end of the full length Akt2 using the PCR primer; middle T tag (EYMPME) (N); biotin tag (from pS2neo vector); made in house; host or cells: Drosophila S2 cells
The description is as above. It counts as biochemical. The method, then: as §1, §2, §3, §4, §5, §6, §7, §8, §9, §10, §11, §12, §13, §14, §15

Structures are written as SMILES.

T2 sequence (P31751 whole entry): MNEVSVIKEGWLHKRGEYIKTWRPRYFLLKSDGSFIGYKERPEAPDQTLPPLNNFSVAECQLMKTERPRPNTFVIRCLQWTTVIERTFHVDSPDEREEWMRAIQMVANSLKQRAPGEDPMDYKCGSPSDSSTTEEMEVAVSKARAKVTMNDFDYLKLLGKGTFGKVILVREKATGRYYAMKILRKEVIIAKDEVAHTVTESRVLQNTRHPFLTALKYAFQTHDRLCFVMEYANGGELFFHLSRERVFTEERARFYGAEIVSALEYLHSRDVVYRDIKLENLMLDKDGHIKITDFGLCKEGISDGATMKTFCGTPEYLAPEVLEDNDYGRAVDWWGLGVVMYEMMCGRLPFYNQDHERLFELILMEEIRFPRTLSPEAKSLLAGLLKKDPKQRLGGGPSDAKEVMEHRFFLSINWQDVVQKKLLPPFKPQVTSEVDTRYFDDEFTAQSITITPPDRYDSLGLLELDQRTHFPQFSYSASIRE
T1 sequence (P31749 whole entry): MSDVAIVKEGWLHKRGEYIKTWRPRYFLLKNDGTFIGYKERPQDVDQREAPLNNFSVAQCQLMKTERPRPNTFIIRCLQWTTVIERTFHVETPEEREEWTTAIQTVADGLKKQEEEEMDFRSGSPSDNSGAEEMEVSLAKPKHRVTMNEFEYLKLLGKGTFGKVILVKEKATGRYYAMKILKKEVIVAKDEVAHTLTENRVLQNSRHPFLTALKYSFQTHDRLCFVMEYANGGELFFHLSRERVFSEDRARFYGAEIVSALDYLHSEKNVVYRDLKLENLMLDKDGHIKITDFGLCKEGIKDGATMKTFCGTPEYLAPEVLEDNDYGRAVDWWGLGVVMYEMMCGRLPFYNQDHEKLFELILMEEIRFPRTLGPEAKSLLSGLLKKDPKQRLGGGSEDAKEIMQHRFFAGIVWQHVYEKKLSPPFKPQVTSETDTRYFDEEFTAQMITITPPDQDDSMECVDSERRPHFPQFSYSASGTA

`Cc1cc2ncc3cc(-c4ccccc4)c(-c4ccc([C@]5(N)C[C@@](O)(C6CC6)C5)cc4)nc3n2n1` [EXAMPLE 1-9, trans-3-amino-1-cyclopropyl-3-[4-(2-methyl-7-phenylpyrazolo[1,5-a]pyrido[3,2-e]pyrimidin-8-yl)phenyl]cyclobutanol]: the IC50 in experiment [1] was 0.004 µM; in experiment [2], 0.029 µM.
On the same counts, the results for `NC1(c2ccc(-c3nc4c(ccn5c(C6CC6)nnc45)cc3-c3ccccc3)cc2)CCC1` [EXAMPLE 9-2, 1-{4-[3-cyclopropyl-8-phenyl[1,2,4]triazolo[4,3-h]-1,7-naphthyridin-9-yl)phenyl}cyclobutanamine] are 0.0327 µM and 0.0338 µM.
For `c1ccc(-c2cc3cnc4nc(N5CCOCC5)nn4c3nc2-c2ccc(CN3CCC(c4nnc(-c5ccccn5)[nH]4)CC3)cc2)cc1` [EXAMPLE 12-3, 2-morpholin-4-yl-7-phenyl-8-(4-{[4-(5-pyridin-2-yl-4H-1,2,4-triazol-3-yl)piperidin-1-yl]methyl}phenyl)pyrido[3,2-e][1,2,4]triazolo[1,5-a]pyrimidine], in that order: 0.0046 µM and 0.0338 µM.
On the same counts, the results for `C=CCNC(=O)C1CCN(Cc2ccc(-c3nc4c(cnc5cc(C)nn54)cc3-c3ccccc3)cc2)CC1` [EXAMPLE 15-3, 2-methyl-7-phenyl-8-(4-{[4-(prop-2-en-1-ylcarbamoyl)piperidin-1-yl]methyl}phenyl)pyrazolo[1,5-a]pyrido[3,2-e]pyrimidine] are 0.0372 µM and 0.578 µM.
